Data set [1] has as its system CH1/PA-1 (ovarian teratocarcinoma) cells. Details: method as in PMID 25032896. Particulars: MTT assay, 96 h; cited from earlier work. (Tetrazolium dyes change colour on reduction, which living cells bring about.)
The test system of data set [2] is SW480 (colon cancer) cells. Details: method as in PMID 25032896. The note with it: MTT assay, 96 h; cited from earlier work.
Data set [3] deals with A549 (non-small cell lung cancer) cells. Set-up: method as in PMID 25032896. The note with it: MTT assay, 96 h; cited from earlier work.
In data set [4] the test system is SW480 cells. Set-up: method as in PMID 27055943. The note with it: exposure time 2 h, platinum; cited from earlier work.
The nature of data set [5]: Lipophilicity by RP-UHPLC capacity factors (logkw, Φ0). It is filed as physicochemical. The source says:
It stands to reason that the higher the lipophilicity, the higher the cell accumulation; as far as passive diffusion is concerned, the higher efficiency with which normal cell function is compromised. As a consequence, lipophilicity is an important factor in drug development, described by the partition coefficient logP, which is routinely determined by the distribution of a compound in 1-octanol/water. However, 1-octanol, a solvent said to closely mimic the solubilizing behavior of cell membranes, forms emulsions with water. Additionally, the shake-flask method, seemingly easy, requires long sample preparation, has a low sample throughput, and lacks reproducibility, as it hinges on exact temperature control and consistent equilibration time allotted for every analyte. The time-consuming nature of this method may also lead to decomposition of the analyte. A concentration-, flow rate-, and column length-independent method is the determination of the capacity factor (k) via HPLC. The capacity factor is a measure for the equilibrium concentration between a polar phase (eluent) and an apolar phase (C18 column coating) and higher resemblance to the partition coefficient in […]. […] The percentage of methanol in the eluent at which logk is equal to zero is Φ0 [27, 28, 29].
The capacity factors k were determined with the use of an RP-UHPLC. The necessary chromatograms were recorded with a Dionex UltiMate 3000 RS UHPLC system (Thermo Fisher Scientific, Bedford, MA, USA) controlled by the Dionex Chromeleon 7.2 software. […] The capacity factors were then calculated as logk = log[(tR − t0)/t0], where tR and t0 are the retention times of the analyte and the dead time marker, respectively, at the respective MeOH:0.1% FA in water ratio. Every retention time was determined in isocratic mode for the different eluent ratios to obtain capacity factors in the linear range (−0.5 ≤ logk ≤ 1.5) in triplicate. A plot of logk against the % of the organic eluent yielded logkw (intercept) and S (slope). Φ0, the factor most closely resembling logP, was then determined as follows: Φ0 = −logkw/S [28].

Data set [6] has as its system CH1/PA-1 (ovarian teratocarcinoma) cells. As to the kind of experiment: MTT antiproliferative assay, CH1/PA-1. The class given is cell-based, human. Particulars: exposure time 96 h, means ± standard deviations. The method, then: CH1/PA-1 (ovarian teratocarcinoma) cells were a generous gift from Lloyd R. Kelland (CRC Centre for Cancer Therapeutics, Institute of Cancer Research, Sutton, UK). A549 (non-small cell lung cancer), SW480, and HCT116 (both colon cancer) cells were kindly provided by the Institute of Cancer Research, Department of Medicine I, Medical University of Vienna, Austria. All cell lines were grown as monolayer cultures in Eagle’s MEM supplemented with L-glutamine (4 mM), sodium pyruvate (1 mM) and 1% (v/v) non-essential amino acid solution (all from Sigma-Aldrich) and 10% (v/v) heat-inactivated fetal calf serum (FCS, BioWest) in 75-cm^2 flasks (Starlab) at 37 °C under a humidified atmosphere containing 5% CO2 in air.
Antiproliferative activity of the compounds was determined with the colorimetric MTT assay (MTT = 3-(4,5-dimethyl-2-thiazolyl)-2,5-diphenyl-2H-tetrazolium bromide). CH1/PA-1, HCT116, SW480, and A549 cells with cell numbers of 1 × 10^3, 1.5 × 10^3, 2 × 10^3, and 3 × 10^3, respectively, were seeded in 100 μL per well into 96-well microculture plates (Starlab). After 24 h, test compounds were dissolved in DMSO (Fisher Scientific), serially diluted in complete MEM not to exceed a final DMSO content of 0.5% (v/v) and added in 100 μL per well. After 96 h, the drug-containing medium was replaced with 100 µL of RPMI 1640/MTT mixture, i. e., 6 parts of RPMI 1640 medium (Sigma-Aldrich; supplemented with 10% heat-inactivated fetal bovine serum and 4 mM L-glutamine), 1 part of MTT solution in phosphate-buffered saline (5 mg/mL; both from Sigma-Aldrich). After incubation for 4 h, the MTT-containing medium was replaced with 150 μL DMSO per well to dissolve the formazan product formed by viable cells. Optical densities at 550 nm (and at the reference wavelength of 690 nm) were measured with a microplate reader (ELx808, Bio-Tek). The IC50 values relative to untreated controls were interpolated from concentration–effect curves. At least three independent experiments were performed, each with triplicates per concentration level.

The subject of data set [7] is SW480 (colon cancer) cells. As to the kind of experiment: MTT antiproliferative assay, SW480. It is filed as cell-based, human. The note with it: exposure time 96 h, means ± standard deviations. The protocol:
(§1) CH1/PA-1 (ovarian teratocarcinoma) cells were a generous gift from Lloyd R. Kelland (CRC Centre for Cancer Therapeutics, Institute of Cancer Research, Sutton, UK). A549 (non-small cell lung cancer), SW480, and HCT116 (both colon cancer) cells were kindly provided by the Institute of Cancer Research, Department of Medicine I, Medical University of Vienna, Austria. All cell lines were grown as monolayer cultures in Eagle’s MEM supplemented with L-glutamine (4 mM), sodium pyruvate (1 mM) and 1% (v/v) non-essential amino acid solution (all from Sigma-Aldrich) and 10% (v/v) heat-inactivated fetal calf serum (FCS, BioWest) in 75-cm^2 flasks (Starlab) at 37 °C under a humidified atmosphere containing 5% CO2 in air. […] After 24 h, test compounds were dissolved in DMSO (Fisher Scientific), serially diluted in complete MEM not to exceed a final DMSO content of 0.5% (v/v) and added in 100 μL per well. After 96 h, the drug-containing medium was replaced with 100 µL of RPMI 1640/MTT mixture, i. e., 6 parts of RPMI 1640 medium (Sigma-Aldrich; supplemented with 10% heat-inactivated fetal bovine serum and 4 mM L-glutamine), 1 part of MTT solution in phosphate-buffered saline (5 mg/mL; both from Sigma-Aldrich). After incubation for 4 h, the MTT-containing medium was replaced with 150 μL DMSO per well to dissolve the formazan product formed by viable cells. Optical densities at 550 nm (and at the reference wavelength of 690 nm) were measured with a microplate reader (ELx808, Bio-Tek). The IC50 values relative to untreated controls were interpolated from concentration–effect curves. At least three independent experiments were performed, each with triplicates per concentration level.

Data set [8] deals with HCT116 (colon cancer) cells. Briefly: MTT antiproliferative assay, HCT116. It is filed as cell-based, human. The note with it: exposure time 96 h, means ± standard deviations. The protocol: as §1
Data set [9] has as its system A549 (non-small cell lung cancer) cells. Briefly: MTT antiproliferative assay, A549. Particulars: exposure time 96 h, means ± standard deviations. The class given is cell-based, human. The method, then:
as §1

Data set [10] relates to SW480 cells. Briefly: Cellular accumulation by ICP-MS quantification of ruthenium (or platinum). The class given is cell-based, human. Particulars: 50 µM, exposure time 2 h, ICP-MS of ruthenium. The method, then: Ruthenium accumulation was measured by means of inductively coupled plasma mass spectrometry (ICP-MS) upon 2 h exposure of SW480 cells to 50 µM of each compound.
Cellular accumulation of the compounds was studied based on a previously described method with modifications as follows: SW480 cells with a number of 1.8 × 10^5 per well were seeded into 12-well plates in aliquots of 1 mL complete MEM and incubated at 37 °C for 24 h. Then, cells were exposed for 2 h at 37 °C to 50 μM solutions of the test compounds (containing 0.5% DMSO) in 500 µL of fresh complete MEM upon exchange of the medium. Afterwards, cells were washed three times with PBS, and lyzed with 0.4 mL sub-boiled HNO3 per well for 1 h at room temperature. Ruthenium content was quantified by ICP-MS using an Agilent 7500ce quadrupole ICP-MS instrument (Agilent Technologies, Waldbronn, Germany) equipped with a CETAC ASX-520 autosampler (Nebraska, USA) and a MicroMist nebulizer. Ruthenium and indium standards were obtained from CPI International (Amsterdam, The Netherlands). The instrument was equipped with nickel cones and operated at an RF power of 1560 W, with argon as the plasma gas (15 L/min), carrier gas (1.0–1.1 L/min) and make-up gas (0.1–0.2 L/min). The Agilent MassHunter software package (Workstation Software, Version B.01.01, Build 123.11, Patch 4, 2012) was used for data processing. Results are based on at least three independent experiments, each comprising triplicate samples. The instrument was tuned on a daily basis for maximum sensitivity and doubly charged species as well as oxide rates were <5%.

The conditions of data set [11]: MeOH, conventional desk lamp, UV-VIS 250–700 nm.
Description: Light activation studies were performed on the same UV-VIS spectrometer. Fourty microliters of solutions (MeOH) were irradiated with a conventional desk lamp, and every 2.5–10 min (depending on progress) a wavelength scan (250–700 nm) was recorded.

For orientation: IC50 means the midpoint of a concentration-inhibition curve.

Read-outs that look alike come from different tables or passages of the source.

In the case of `N.N.[Cl][Pt][Cl]` [Cisplatin], the IC50 is 0.077 ± 0.006 µM in data set [1], 3.3 ± 0.2 µM in [2] and 6.2 ± 1.2 µM in [3]. Further, the “cellular accumulation, fg Ru or Pt/Cell” value in the data set with SW480 cells [4] is on record as 12 ± 2 fg Ru or Pt/Cell.

Consider `Cc1ccc(C(C)C)cc1.F[P-](F)(F)(F)(F)F.O=C1C(=C(NCc2ccccc2)[O][Ru+])C(=O)c2ccccc21.c1ccncc1` [1f], for which the Intercept logkw in data set [5] (RP-UHPLC, MeOH/0.1% formic acid in water, 25 °C, logk extrapolated to 100% water) is 5.25. Moreover, the Φ0 in data set [5] (percentage of methanol in the eluent at which logk is zero, Φ0 = −logkw/S) is listed as 62.07. Moreover, the “Slope S” value in [5] (slope of logk against % organic eluent (MeOH)) is −0.0845. The IC50 in data set [6] came out at 8.2 ± 2 µM; in data set [7], 6.3 ± 1.1 µM; in data set [8], 20.2 ± 6.4 µM; in [9], 22.1 ± 3.2 µM. In addition, the “cellular accumulation, fg Ru or Pt/Cell” value in the data set with SW480 cells [10] was 231 ± 93 fg Ru or Pt/Cell. The “time until no more change upon light irradiation (completion of the reaction)” value in [11] is given as 75 min.

The values are drawn from PMC6651387, “Fine-Tuning the Activation Mode of an 1,3-Indandione-Based Ruthenium(II)-Cymene Half-Sandwich Complex by Variation of Its Leaving Group” (Molecules, 2019).
